From PMC12645083, “Microwave‐Enhanced Synthesis of 2‐Styrylquinoline‐4‐Carboxamides With Promising Anti‐Lymphoma Activity” (Archiv Der Pharmazie, 2025)

Assays:
A549 = assay: In vitro antiproliferative activity, resazurin cell viability; format: cell-based; details: Homo sapiens, non-small cell lung cancer, 72 h of treatment, mean ± SEM
Method: (§1) To test the newly synthesized compounds, various human cell lines were employed. HD‐MB03 cells were purchased from DSMZ (Braunschweig, Germany), while A549, MDA‐MB‐231, RPMI‐8420, SU‐DHL‐8, TOLEDO, VL51, SU‐DHL‐1, SU‐DHL‐18, and KM‐H2 were obtained from ATCC (Manassas, VA, USA). Cells were cultured in DMEM (for MDA‐MB‐231 and A549) or RPMI‐1640 (for RPMI‐8420, SU‐DHL‐8, TOLEDO, VL51, SU‐DHL‐1, SU‐DHL‐18, KM‐H2, and HD‐MB03) media (Gibco, Milan, Italy). Both media were supplemented with 115 units/mL penicillin G (Gibco, Milan, Italy), 115 µg/mL streptomycin (Invitrogen, Milan, Italy), and 10% fetal bovine serum (Invitrogen, Milan, Italy). Peripheral blood mononuclear cells (PBMCs) were isolated from healthy donors as previously described. For cytotoxicity assays, PBMCs were resuspended at 5 × 10⁵ cells/mL in complete RPMI medium with or without 2.5 µg/mL phytohemagglutinin (PHA) (Irvine Scientific) to stimulate T‐cell activation and proliferation. All cell lines were maintained at 37°C in a humidified atmosphere containing 5% CO₂. All compounds were dissolved in DMSO at a 10 mM stock concentration. For dose–response assays, cells were seeded in 96‐well plates at densities optimized for each cell line: HD‐MB03 at 10,000 cells/well, A549 at 4000 cells/well, and MDA‐MB‐231 at 7000 cells/well. All other cell lines were seeded at 20,000 cells/well in a final volume of 100 µL per well. After 24 h, cells were treated with a 6‐point serial dilution of compounds starting from 10 µM, in triplicate for statistical analysis. Seventy‐2 h posttreatment, 10 µL of resazurin solution (100 µg/mL) was added to each well, and cells were incubated for an additional 3–6 h. Fluorescence was measured using a Spark 10 M microplate reader (Tecan Group Ltd., Männedorf, Switzerland) with excitation at 535 nm and emission at 600 nm. The IC₅₀ was defined as the concentration of compound required to inhibit cell proliferation by 50% compared to cells treated with the highest DMSO concentration.
(§2) To test the newly synthesized compounds, various human cell lines were employed. HD-MB03 cells were purchased from DSMZ (Braunschweig, Germany), while A549, MDA-MB-231, RPMI-8420, SU-DHL-8, TOLEDO, VL51, SU-DHL-1, SU-DHL-18, and KM-H2 were obtained from ATCC (Manassas, VA, USA). Cells were cultured in DMEM (for MDA-MB-231 and A549) or RPMI-1640 (for RPMI-8420, SU-DHL-8, TOLEDO, VL51, SU-DHL-1, SU-DHL-18, KM-H2, and HD-MB03) media (Gibco, Milan, Italy). Both media were supplemented with 115 units/mL penicillin G (Gibco, Milan, Italy), 115 µg/mL streptomycin (Invitrogen, Milan, Italy), and 10% fetal bovine serum (Invitrogen, Milan, Italy). Peripheral blood mononuclear cells (PBMCs) were isolated from healthy donors as previously described. ^[1] For cytotoxicity assays, PBMCs were resuspended at 5 × 10⁵ cells/mL in complete RPMI medium with or without 2.5 µg/mL phytohemagglutinin (PHA) (Irvine Scientific) to stimulate T cell activation and proliferation. All cell lines were maintained at 37 °C in a humidified atmosphere containing 5% CO₂. All compounds were dissolved in DMSO at a 10 mM stock concentration. For dose–response assays, cells were seeded in 96-well plates at densities optimized for each cell line: HD-MB03 at 10,000 cells/well, A549 at 4,000 cells/well, and MDA-MB-231 at 7,000 cells/well. All other cell lines were seeded at 20,000 cells/well in a final volume of 100 µL per well. After 24 hours, cells were treated with a 6-point serial dilution of compounds starting from 10 µM, in triplicate for statistical analysis. Seventy-two hours post-treatment, 10 µL of resazurin solution (100 µg/mL) was added to each well, and cells were incubated for an additional 3–6 hours. Fluorescence was measured using a Spark 10M microplate reader (Tecan Group Ltd., Männedorf, Switzerland) with excitation at 535 nm and emission at 600 nm. […]

HD-MB03 = assay: as above; format: cell-based; details: Homo sapiens, medulloblastoma cells, 72 h of treatment, mean ± SEM, at least three experiments
Method: as §1, §2

MDA-MB-231 = assay: as above; format: cell-based; details: Homo sapiens, triple-negative breast cancer, 72 h of treatment, mean ± SEM
Method: as §1, §2

RPMI-8402 = assay: as above; format: cell-based; details: Homo sapiens, T-lymphoblastic leukemia cells, 72 h of treatment, mean ± SEM
Method: as §1, §2

SU-DHL-8 = assay: as above; format: cell-based; details: Homo sapiens, B lymphocyte, large cell lymphoma, 72 h of treatment, mean ± SEM
Method: as §1, §2

KM-H2 = assay: Antiproliferative activity on lymphoma-derived cell lines, resazurin; format: cell-based; details: Homo sapiens, Hodgkin lymphoma, 72 h of treatment, mean ± SEM
Method: as §1, §2

SU-DHL-18 = assay: as above; format: cell-based; details: Homo sapiens; lymph node lymphoma; 72 h of treatment; mean ± SEM
Method: as §1, §2

SU-DHL-1 = assay: as above; format: cell-based; details: Homo sapiens, histiocytic large cell lymphoma, 72 h of treatment, mean ± SEM
Method: as §1, §2

TOLEDO = assay: as above; format: cell-based; details: Homo sapiens, diffuse large B-cell lymphoma, 72 h of treatment, mean ± SEM
Method: as §1, §2

VL51 = assay: as above; format: cell-based; details: Homo sapiens, splenic B-cell lymphoma, 72 h of treatment, mean ± SEM
Method: as §1, §2

[1] = test system: panel of five lymphoma cell lines (VL51, TOLEDO, SU-DHL-18, SU-DHL-1, KM-H2); assay: Antiproliferative activity, range over the panel of five lymphoma cell lines; format: cell-based, human; details: range or statement over the lymphoma cell lines, 72 h; for IC50: Homo sapiens
Text: Based on these interesting results on hematological malignancies‐derived cell lines, styrylquinolines 4i, 4n, 4s and 4ah were further tested for their antiproliferative activity on a panel of five lymphoma cell lines (VL51, splenic B‐cell lymphoma; TOLEDO, diffuse large B‐cell lymphoma, non‐Hodgkin lymphoma; SU‐DHL‐18, lymph node lymphoma; SU‐DHL‐1, histiocytic large cell lymphoma; KM‐H2, Hodgkin lymphoma) (Table 3). In this case, a different behaviour was observed.
as §1

Row | IC50 (A549) | IC50 (MDA-MB-231) | IC50 (SU-DHL-8) | IC50 (KM-H2) | IC50 (SU-DHL-18) | IC50 (SU-DHL-1) | IC50 (TOLEDO) | IC50 (VL51) | IC50 values, range over lymphoma cell lines [1] | IC50 [1] | SMILES | IC50 (HD-MB03) | IC50 (RPMI-8402)
1 | > 10 µM | > 10 µM | 1.37 ± 0.14 µM | > 10 µM | > 10 µM | > 10 µM | > 10 µM | > 10 µM | devoid of antiproliferative activity |  | COc1cc(/C=C/c2cc(C(=O)Nc3ccc([N+](=O)[O-])cc3)c3ccccc3n2)cc(OC)c1OC [4s, (E)-N-(4-nitrophenyl)-2-(3,4,5-trimethoxystyryl)quinoline-4-carboxamide] | > 10 µM | > 10 µM
2 | > 10 µM | > 10 µM | 0.46 ± 0.05 µM | > 10 µM | > 10 µM | > 10 µM | > 10 µM | > 10 µM | devoid of antiproliferative activity |  | COc1cc(/C=C/c2cc(C(=O)Nc3c(C)cccc3C)c3ccccc3n2)cc(OC)c1OC [4n, (E)-N-(2,6-dimethylphenyl)-2-(3,4,5-trimethoxystyryl)quinoline-4-carboxamide] | > 10 µM | 0.79 ± 0.07 µM
3 | 6.92 ± 0.68 µM | 4.99 ± 0.35 µM | 2.15 ± 0.45 µM | 6.74 ± 2.12 µM | 3.79 ± 0.51 µM | 4.9 ± 0.31 µM | 4.93 ± 0.62 µM | > 10 µM |  | 3.79 to 6.74 µM | O=C(Nc1ccc(Cl)cc1)c1cc(/C=C/c2ccccc2[N+](=O)[O-])nc2ccccc12 [4ah, (E)-N-(4-chlorophenyl)-2-(2-nitrostyryl)quinoline-4-carboxamide] | > 10 µM | 1.33 ± 0.02 µM
4 | > 10 µM | > 10 µM | 1.64 ± 0.25 µM | 2.8 ± 0.21 µM | 7.6 ± 2.8 µM | 2.32 ± 1.46 µM | 1.05 ± 0.09 µM | 1.03 ± 0.02 µM |  | 1.03 to 7.6 µM | O=C(Nc1ccc([N+](=O)[O-])cc1)c1cc(/C=C/c2ccccc2)nc2ccccc12 [4i, (E)-N-(4-nitrophenyl)-2-styrylquinoline-4-carboxamide] | > 10 µM | 1.14 ± 0.12 µM
